The results in this text go back to US6051683A, “Immune regulating peptides and method of obtaining them” (Immunotech Developments Inc., priority 1995, dated 2000).

Peptide text beside a SMILES is read from it.

In data set [1] the test system is lymphocytes of the guinea pigs. The data set is described as follows: E-yield (E-POK) of guinea pig lymphocytes after processing with trypsin. It is filed as cell-based. Particulars: untreated animals 66.5, treated with trypsin 36.1. The method, then:
Biological activity of the new peptide was studied on guinea pigs using recognised testing methods of E-yield of lymphocytes of the guinea pigs subsequent to processing with trypsin.
*Each concentration was tested on 5 animals. The positive growth differs
in relation to the control group EPOK is 50% or higher.

Data set [2] in a line: Solubility of the peptide. It is filed as physicochemical. An excerpt: The peptide obtained by the above formula has the texture of a white powder, which is soluble in water, not completely soluble in alcohol and non soluble on chloroform.
Solubility--Soluble in water, non soluble in chloroform.

In the case of `CC[C@H](C)[C@H](N)C(=O)N[C@@H](CCC(=O)O)C(=O)N[C@@H](Cc1c[nH]c2ccccc12)C(=O)O` [Ile-Glu-Trp, H-Ile-Glu-Trp-OH] (H-Ile-Glu-Trp-OH), the “QUANTITY E-POK, (%) after treatment with trypsin and compound” value in data set [1] (compound concentration 10^-6 mg/ml) amounted to 61.4%; in data set [1] (compound concentration 10^-7 mg/ml), 63.9%; in data set [1] (compound concentration 10^-8 mg/ml) it was 64.8%; in data set [1] (compound concentration 10^-9 mg/ml), 60.2%; in data set [1] (compound concentration 10^-10 mg/ml) it was 37.5%; in data set [1] (compound concentration 10^-11 mg/ml), 40.0%. Moreover, in data set [1] (compound concentration 10^-12 mg/ml), the “QUANTITY E-POK, (%) after treatment with trypsin and compound” value is reported as 34.3%. Also, the Solubility in chloroform result in data set [2] (chloroform) is given as “non soluble”. For the same compound, in data set [2] (water), the Solubility in water entry is “Soluble”.
